# Test results from paper PMC10350920, “Development of a 2,4-Diaminothiazole Series for the Treatment of Human African Trypanosomiasis Highlights the Importance of Static–Cidal Screening of Analogues” (Journal of Medicinal Chemistry, 2023).
# Like-named read-outs stand apart in the source and are kept apart here.
# Tests used:
# [1] = Mammalian cell counter screen (MRC-5); assay type: cell-based, human; details: human, MRC-5 fibroblasts; mean values; number of replicates in parentheses
# Procedure: Drug sensitivity assays with BSF T. b. brucei “single marker” S427 and human MRC-5 fibroblasts were conducted as previously described.[43]
# [2] = Human microsomal intrinsic clearance; assay type: in vitro ADME; details: second value of mouse/human cell
# [3] = Pharmacokinetics in rats; assay type: in vivo, Sprague Dawley rats
# Procedure: To determine compound exposure, compounds were dosed by gavage (16, 38) at 10 mg kg^–1 free base (16, 38), dose volume; and 5 mL kg^–1 (16, 38), dose vehicle (10% DMSO/40% PEG400/50% Milli-Q) to female NMRI mice, n = 3/dose level (16), or Sprague Dawley rats (38). Blood samples were taken from each mouse/rat at 5, 15, and 30 min, 1, 2, 4, 6, and 8 h postdose and mixed with two volumes of distilled water. After suitable sample preparation, the concentration of the test compound in blood was determined by UPLC–MS/MS using a Quattro Premier XE (Waters, USA). Pharmacokinetic parameters were derived from the mean blood concentration–time curve using PKsolutions software v 2.0 (Summit Research Services, USA).
# [4] = Kinetic aqueous solubility (laser nephelometry); assay type: physicochemical; details: Milli-Q water with 2.5% DMSO
# Procedure: The kinetic aqueous solubility of the test compounds was measured using laser nephelometry. Compounds were subject to serial dilution from 10 to 0.5 mM in DMSO. An aliquot was then mixed with Milli-Q water to obtain an aqueous dilution plate with a final concentration range of 13–250 μM, with a final DMSO concentration of 2.5%. Triplicate aliquots were transferred to a flat-bottomed polystyrene plate which was immediately read on the NEPHELOstar (BMG Lab Technologies). The amount of laser scatter caused by insoluble particulates (relative nephelometry units, RNUs) was plotted against compound concentration using a segmental regression fit, with the point of inflection being quoted as the compound’s aqueous solubility (μM).
# [5] = system: BSF trypanosomes; test: Static–cidal assay; assay type: cell-based, T. brucei; details: lower concentrations cytostatic
# Description: To complement our established T. brucei cell-based screen, in the course of these studies, we developed an assay that allows discrimination of compounds that are cytostatic from those that are cytocidal.[15] In this assay, static and cidal compounds are categorized by analysis of growth curves, with cidal compounds causing a decrease in parasite numbers. Commonly, phenotypic screens with T. brucei are end-point assays with live-cell indicators used as the final readout. In our […] assay, bloodstream trypanosomes are grown in the presence of test compounds for 3 days with a starting cell density well below the assay limit of detection, thus making it impossible to distinguish cidal from static compounds. To assess if compounds within this diaminothiazole series kill trypanosomes or merely stop parasite growth, we profiled a panel of compounds in our static–cidal assay. […] Similarly in rats, the concentration would be below the level for cidal activity.
# An assay to assess initial indications of the cidal nature of the compound series was conducted as previously reported.[15] […] After 4 h, the time = 0 plate was read using a PerkinElmer Victor 3 plate reader (excitation 528 nm; emission 590 nm). […]
# [6] = system: T. brucei wild-type; test: Drug sensitivity, wild-type parental line; assay type: cell-based, T. b. brucei; details: Trypanosoma brucei; weighted mean of ≥3 independent experiments
# Procedure: (§1) Drug sensitivity assays were carried out with BSF T. b. brucei “single marker” S427 or BSF T. b. brucei, Lister 427, MiTat 1.2, clone 221a 2T1 cells,[45] cells grown at 37 °C with 5% CO2 in an HMI-9T medium[46] as previously described.[47] 2T1 cells were initially maintained with 1 μg mL^–1 puromycin and 1 μg mL^–1 phleomycin prior to transfection or 2.5 μg mL^–1 hygromycin and 1 μg mL^–1 phleomycin after transfection. Induction of overexpression was achieved by the addition of 1 μg mL^–1 tetracycline to the culture medium.
# (§2) Compound-resistant cell lines were generated by subculturing a clone of T. brucei in the continuous presence of 38. Starting at sublethal concentrations, drug concentrations in two independent cultures were increased in a stepwise manner, usually 2-fold. When parasites were able to survive and grow in concentrations of drugs equivalent to more than 10 times the established EC50 value, the resulting cell lines were cloned by limiting dilution in the presence of the compound. Two clones (RES I-II) were selected for further biological study. A standard alkaline lysis protocol was used to isolate genomic DNA from compound-resistant bloodstream T. brucei parasites (∼1 × 10^8). Whole genome sequencing was performed using a DNB-seq next-generation sequencing platform (BGI, Hong Kong). Sequencing reads (150 bp) were aligned to the T. brucei TREU927 genome (v39; tritrypDB) using Bowtie2[48] and Samtools[49] software. […] Samtools and BCFtools[52] (mpileup) were used to call SNP and indels compared with the wild-type starter clone, where the overall quality score (QUAL) was >100. Artemis[50] was used to analyze chromosome and gene copy number variation, as well as visualization of SNPs.
# [7] = system: T. brucei RES I; test: Drug sensitivity, compound 38-resistant clone RES I; assay type: cell-based, T. b. brucei
# Procedure: as §1, §2
# [8] = system: T. brucei RES II; test: Drug sensitivity, compound 38-resistant clone RES II; assay type: cell-based, T. b. brucei
# Procedure: as §1, §2
# [9] = system: Tb927.8.6290 overexpressing cell lines (A258P); test: Drug sensitivity, line overexpressing Tb927.8.6290 A258P; assay type: cell-based, T. b. brucei; details: for EC50: Trypanosoma brucei
# Procedure: as §1
# The following primers were used to PCR amplify Tb927.8.6290 from genomic DNA isolated from wild-type and 38-resistant trypanosomes 5′-[…]-3′ (PacI site in bold) and 5′-[…]-3′ (BamHI site in bold). The PCR products (1272 bp) were then cloned into the pRPa plasmid.[53] The accuracy of the plasmid constructs was confirmed by in-house Sanger sequencing and then linearized with AscI prior to transfection. The linearized plasmids were introduced into 2T1 T. b. brucei cells following removal of puromycin from the media and selected with 2.5 μg mL^–1 hygromycin and 1 μg mL^–1 phleomycin. Two independent clones were selected for further studies.
# [10] = Tolerability / maximum tolerated dose; details: NMRI mice, IP
# [11] = system: stage 2 HAT; test: Stage 2 model of CNS disease; assay type: in vivo
# [12] = male, Sprague Dawley, whole blood, rat, PO, 10 mg kg^–1
# [13] = relative to the parental wild-type, in brackets
Molecule,EC50 [1] [µM],CLint (human) [2] [mL·min/g],"free blood Cmax ([3]; male SD rats, 10 mg kg^–1 PO) [ng mL^–1]","AUC [3, 12] [ng·h/mL]","Cmax [3, 12] [ng/mL]","Tmax [3, 12] [h]",solubility [4] [µg/mL],concentration that is cidal (reduction in parasite number) [5],EC50 [6] [µM],"EC50 ([7]; Trypanosoma brucei, read-out: EC50, RES I) [µM]","fold resistance, RES I [7, 13]","EC50 ([8]; Trypanosoma brucei, read-out: EC50, RES II) [µM]","fold resistance, RES II [8, 13]","EC50 ([9]; read-out: EC50, A258P +TET) [µM]","EC50 ([9]; read-out: EC50, A258P –TET) [µM]","fold shift, A258P ([9]; −TET vs +TET EC50, in brackets)",maximum dose chosen following maximum tolerated dose study [10] [mg kg^–1],efficacy in stage 2 disease model [11]
"CC(C)(O)CC(=O)c1sc(Nc2ccc(F)c(F)c2)nc1N [Compound 38, 1-(4-Amino-2-((3,4-difluorophenyl)amino)thiazol-5-yl)-3-hydroxy-3-methylbutan-1-one]",46,< 0.5,195,7830,1400,4,> 100,50 µM,0.31 ± 0.004,2.2 ± 0.084,7,8.2 ± 0.49,26,12 ± 0.25,0.31 ± 0.009,40,100,–
"(4-Amino-2-(cyclohexylamino)thiazol-5-yl)(2,6-difluorophenyl)methanone [Compound 16]",–,–,–,–,–,–,–,above 5.6 μM,–,–,–,–,–,–,–,–,–,not efficacious
